Test results taken from US9579319B2 (Redx Pharma PLC, priority 2013, dated 2017).
pIC50: −log10 of the molar value.

These compounds were tested on Hedgehog signalling pathway (assay: Gli-reporter NIH3T3 luciferase assay (Hedgehog pathway inhibition)). Settings: NIH3T3; Gli-reporter NIH-3T3 cells, recombinant mouse sonic hedgehog, 24 hours, luminescence; read-out: Category (Hedgehog pathway inhibition activity, IC50).
Type: cell-based
Description: In vitro biological evaluation of compounds of the invention was carried out using the procedure detailed below. The procedure provides activity data for the compounds of the invention against the Hedgehog signalling pathway. The activity is represented as IC50 values in Table 12 below.
The Gli-reporter NIH3T3 cell line (BPS Biosciences) was grown according to the suppliers recommendations. Briefly, cells were maintained in growth medium (DMEM supplemented with 10% calf serum, 1% Penicillin/Streptomycin, and 500 µg/mL of Geneticin) and grown at 37° C., 5% CO2. In order to passage cells they were first rinsed with phosphate buffered saline before the addition of 0.05% Trypsin/EDTA. Fresh growth media was added and the cells were transferred to a centrifuge tube, spun and resuspended at an appropriate cell density.
Gli-reporter NIH-3T3 cells were seeded at 20,000 cells/well into 96 well, poly-D-lysine coated white clear bottomed full area TC plates in growth media (without geneticin). Three wells were left with just media as cell free controls. Cells were then incubated for 24 hours at 37° C. in a 5% CO2.
Serial dilutions of the test compounds were prepared in 100% DMSO. 10 μl of compound or DMSO from each well was pipetted into a sterile, 0.5 ml deep well conical bottomed 96 well plate (intermediate plate). 190 μl of warmed assay media (Opti-MEM supplemented with 0.5% calf serum, 1% non-essential amino acids, 1 mM sodium pyruvate, 10 mM HEPES, 1% penicillin/Streptomycin) was then added to each well and mixed five times at 180 μl by electronic pipette to ensure homogeneity of the compound solution. This 1:20 dilution gives a top concentration of 50 μM in 5% DMSO, 95% assay media. 10 μl was pipetted from each well of the intermediate plate into a second deep well sterile plate. 490 μl of warm assay media was then added to each well and mixed five times at 300 μl. This gives a final top concentration of 1 μM in 0.1% DMSO.
After the 24 hour incubation, media was carefully removed by pipette and replaced with 45 μl of compound dilutions in triplicate. This was incubated for one hour at 37° C. in a 5% CO2. After an hour, 5 μl 10 μg/mL recombinant mouse sonic hedgehog (R&D Systems) was added to each well and the plates were incubated for a further 24 hours at 37° C., 5% CO2.
After 24 hours, plates were removed from the incubator and left to acclimatise to room temperature for 20 minutes. 50 μl of OneGLO assay reagent (Promega) was then added to each well and the plates gently shaken for a further 30 minutes. Plates were then read for luminescence on the EnVision plate reader (PerkinElmer).

Structure (SMILES) | pIC50
COc1cccc(NC(=O)NC2CCN(c3nnc(-c4ccnn4C)c4ccccc34)CC2)c1 [Example 24, 1-(3-methoxyphenyl)-3-[1-[4-(2-methylpyrazol-3-yl)phthalazin-1-yl]-4-piperidyl]urea] | > 8.00
Cn1nccc1-c1nnc(N2CCC(NC(=O)Nc3ccccc3OC(F)(F)F)CC2)c2ccccc12 [Example 25, 1-[1-[4-(2-methylpyrazol-3-yl)phthalazin-1-yl]-4-piperidyl]-3-[2-(trifluoromethoxy)phenyl]urea] | > 8.00
Cn1nccc1-c1nnc(N2CCC(NC(=O)Nc3ccc(OC(F)F)cc3)CC2)c2ccccc12 [Example 26, 1-[4-(difluoromethoxy)phenyl]-3-[1-[4-(2-methylpyrazol-3-yl)phthalazin-1-yl]-4-piperidyl]urea] | > 8.00
Cn1nccc1-c1nnc(N2CCC(NC(=O)Nc3ccc(C#N)cc3)CC2)c2ccccc12 [Example 32, 1-(4-cyanophenyl)-3-[1-[4-(2-methylpyrazol-3-yl)phthalazin-1-yl]-4-piperidyl]urea] | > 8.00
Cn1nccc1-c1nnc(N2CCC(NCc3cccc(OC(F)(F)F)c3)CC2)c2ccccc12 [Example 34, 1-[4-(2-methylpyrazol-3-yl)phthalazin-1-yl]-N-[[3-(trifluoromethoxy)phenyl]methyl]piperidin-4-amine] | 6.70 to 8.00
Cn1nccc1-c1nnc(N2CCC(NCc3ccc(Cl)cc3)CC2)c2ccccc12 [Example 35, N-[(4-chlorophenyl)methyl]-1-[4-(2-methylpyrazol-3-yl)phthalazin-1-yl]piperidin-4-amine] | 6.70 to 8.00
Cn1nccc1-c1nnc(N2CCC(NCc3ccccc3OC(F)(F)F)CC2)c2ccccc12 [Example 36, 1-[4-(2-methylpyrazol-3-yl)phthalazin-1-yl]-N-[[2-(trifluoromethoxy)phenyl]methyl]piperidin-4-amine] | 6.70 to 8.00
Cn1nccc1-c1nnc(N2CCC(NCc3ccc(C(F)(F)F)cc3)CC2)c2ccccc12 [Example 37, 1-[4-(2-methylpyrazol-3-yl)phthalazin-1-yl]-N-[[4-(trifluoromethyl)phenyl]methyl]piperidin-4-amine] | 6.70 to 8.00
Cn1nccc1-c1nnc(N2CCC(NCc3cccc(C(F)(F)F)c3)CC2)c2ccccc12 [Example 39, 1-[4-(2-methylpyrazol-3-yl)phthalazin-1-yl]-N-[[3-(trifluoromethyl)phenyl]methyl]piperidin-4-amine] | 6.70 to 8.00
Cc1c(-c2ccnn2C)nnc(N2CCC(N(C)Cc3ccc(F)cc3C(F)(F)F)CC2)c1C [Example 41, 1-[4,5-dimethyl-6-(2-methylpyrazol-3-yl)pyridazin-3-yl]-N-[[4-fluoro-2-(trifluoromethyl)phenyl]methyl]-N-methyl-piperidin-4-amine] | 6.70 to 8.00
CN(Cc1ccc(F)cc1C(F)(F)F)C1CCN(c2ccc(-c3ccnn3C)nn2)CC1 [Example 42, N-[[4-fluoro-2-(trifluoromethyl)phenyl]methyl]-N-methyl-1-[6-(2-methylpyrazol-3-yl)pyridazin-3-yl]piperidin-4-amine] | > 8.00
Cn1nccc1-c1nnc(N2CCC(NCc3ccc(Cl)nc3C(F)(F)F)CC2)c2ccccc12 [Example 44, N-[[6-chloro-2-(trifluoromethyl)-3-pyridyl]methyl]-1-[4-(2-methylpyrazol-3-yl)phthalazin-1-yl]piperidin-4-amine] | > 8.00
COc1ccc(NC(=O)NC2CCN(c3nnc(-c4ccnn4C)c4ccccc34)CC2)cc1 [Example 45, 1-(4-methoxyphenyl)-3-[1-[4-(2-methylpyrazol-3-yl)phthalazin-1-yl]-4-piperidyl]urea] | 6.70 to 8.00
Cn1nccc1-c1nnc(N2CCC(NC(=O)Nc3ccccc3F)CC2)c2ccccc12 [Example 46, 1-(2-fluorophenyl)-3-[1-[4-(2-methylpyrazol-3-yl)phthalazin-1-yl]-4-piperidyl]urea] | > 8.00
CN(Cc1ccc(F)cc1C(F)(F)F)C1CCN(c2nnc(-c3ccnn3C)c3ccncc23)CC1 [Example 47, N-[[4-fluoro-2-(trifluoromethyl)phenyl]methyl]-N-methyl-1-[1-(2-methylpyrazol-3-yl)pyrido[3,4-d]pyridazin-4-yl]piperidin-4-amine] | > 8.00
CN(C1CCN(c2nnc(-c3ccnn3C)c3ccccc23)CC1)S(=O)(=O)c1ccc(F)cc1C(F)(F)F [Example 48, 4-fluoro-N-methyl-N-[1-[4-(2-methylpyrazol-3-yl)phthalazin-1-yl]-4-piperidyl]-2-(trifluoromethyl)benzenesulfonamide] | > 8.00
Cn1nccc1-c1nnc(N2CCC(NCc3ccc(F)cc3C(F)(F)F)CC2)c2cnccc12 [Example 49, N-[[4-fluoro-2-(trifluoromethyl)phenyl]methyl]-1-[1-(2-methylpyrazol-3-yl)pyrido[3,4-d]pyridazin-4-yl]piperidin-4-amine] | 6.70 to 8.00
Cn1nccc1-c1nnc(N2CCC(NS(=O)(=O)c3ccc(F)cc3C(F)(F)F)CC2)c2ccccc12 [Example 50, 4-fluoro-N-[1-[4-(2-methylpyrazol-3-yl)phthalazin-1-yl]-4-piperidyl]-2-(trifluoromethyl)benzenesulfonamide] | > 8.00
Cn1nccc1-c1nnc(N2CCC(NCc3ccncc3C(F)(F)F)CC2)c2ccccc12 [Example 51, 1-[4-(2-methylpyrazol-3-yl)phthalazin-1-yl]-N-[[3-(trifluoromethyl)-4-pyridyl]methyl]piperidin-4-amine] | 6.70 to 8.00
Cn1nccc1-c1nnc(N2CCC(Nc3ccc(F)cc3C(F)(F)F)CC2)c2ccccc12 [Example 53, N-[4-fluoro-2-(trifluoromethyl)phenyl]-1-[4-(2-methylpyrazol-3-yl)phthalazin-1-yl]piperidin-4-amine] | > 8.00

The next lines start with the values.

pIC50 | Structure (SMILES)
6.70 to 8.00 | CN(Cc1ccc(F)nc1F)C1CCN(c2nnc(-c3ccnn3C)c3ccccc23)CC1 [Example 27, N-[(2,6-difluoro-3-pyridyl)methyl]-N-methyl-1-[4-(2-methylpyrazol-3-yl)phthalazin-1-yl]piperidin-4-amine]
> 8.00 | CSc1ccccc1CN(C)C1CCN(c2nnc(-c3ccnn3C)c3ccccc23)CC1 [Example 28, N-methyl-1-[4-(2-methylpyrazol-3-yl)phthalazin-1-yl]-N-[(2-methylsulfanylphenyl)methyl]piperidin-4-amine]
6.70 to 8.00 | CC(C)c1ccccc1CN(C)C1CCN(c2nnc(-c3ccnn3C)c3ccccc23)CC1 [Example 29, N-[(2-isopropylphenyl)methyl]-N-methyl-1-[4-(2-methylpyrazol-3-yl)phthalazin-1-yl]piperidin-4-amine]
> 8.00 | Cc1ccccc1CN(C)C1CCN(c2nnc(-c3ccnn3C)c3ccccc23)CC1 [Example 30, N-methyl-1-[4-(2-methylpyrazol-3-yl)phthalazin-1-yl]-N-(o-tolylmethyl)piperidin-4-amine]
6.70 to 8.00 | Cn1nccc1-c1nnc(N2CCC(NCc3ccccc3[N+](=O)[O-])CC2)c2ccccc12 [Example 31, 1-[4-(2-methylpyrazol-3-yl)phthalazin-1-yl]-N-[(2-nitrophenyl)methyl]piperidin-4-amine]
6.70 to 8.00 | CN(Cc1ccccc1C#N)C1CCN(c2nnc(-c3ccnn3C)c3ccccc23)CC1 [Example 33, 2-[[methyl-[1-[4-(2-methylpyrazol-3-yl)phthalazin-1-yl]-4-piperidyl]amino]methyl]benzonitrile]
6.70 to 8.00 | Cn1nccc1-c1nnc(N2CCC(NCc3ccccc3Cl)CC2)c2ccccc12 [Example 38, N-[(2-chlorophenyl)methyl]-1-[4-(2-methylpyrazol-3-yl)phthalazin-1-yl]piperidin-4-amine]
> 8.00 | Cn1nccc1-c1nnc(N2CCC(NCc3ccccc3C(F)(F)F)CC2)c2ccccc12 [Example 40, 1-[4-(2-methylpyrazol-3-yl)phthalazin-1-yl]-N-[[2-(trifluoromethyl)phenyl]methyl]piperidin-4-amine]
6.70 to 8.00 | CC(C)c1ccccc1CNC1CCN(c2nnc(-c3ccnn3C)c3ccccc23)CC1 [Example 43, N-[(2-isopropylphenyl)methyl]-1-[4-(2-methylpyrazol-3-yl)phthalazin-1-yl]piperidin-4-amine]
6.70 to 8.00 | CCOc1ccccc1CNC1CCN(c2nnc(-c3ccnn3C)c3ccccc23)CC1 [Example 52, N-[(2-ethoxyphenyl)methyl]-1-[4-(2-methylpyrazol-3-yl)phthalazin-1-yl]piperidin-4-amine]

Same assay, conditions: NIH3T3; Gli-reporter NIH-3T3 cells, recombinant mouse sonic hedgehog, 24 hours, luminescence; read-out: Gli Luc nM (IC50)

IC50 | Structure (SMILES)
0.04 nM | CN(Cc1ccc(F)cc1C(F)(F)F)C1CCN(c2ccc(-c3ccnn3C)nn2)CC1 [Example 42, N-[[4-fluoro-2-(trifluoromethyl)phenyl]methyl]-N-methyl-1-[6-(2-methylpyrazol-3-yl)pyridazin-3-yl]piperidin-4-amine]
1.79 nM | Cn1nccc1-c1nnc(N2CCC(NS(=O)(=O)c3ccc(F)cc3C(F)(F)F)CC2)c2ccccc12 [Example 50, 4-fluoro-N-[1-[4-(2-methylpyrazol-3-yl)phthalazin-1-yl]-4-piperidyl]-2-(trifluoromethyl)benzenesulfonamide]
